# Where two headings read alike, the source gives them in different places.
# Experiments:
# THP-1 cells [1] = assay: Production of RANTES by differentiated (MDP-sensitized) THP-1 cells, ELISA; format: cell-based; details: for synergistic effect on the production of RANTES: sensitizer added to PGN/LPS: MDP 10 μg/ml, f-MLP 1, 10, 100 nM, LPS 25 pg/ml; for Detection threshold / EC50: RANTES; for Detection threshold / EC50 / Sensitivity: without MDP; for Sensitivity: per g of polymer at 25 mg/ml
# Method: (§1) The THP-1 cells (88081201, ECACC) are cultured routinely in the laboratory.
# (§2) For the pro-inflammatory activation experiments, the THP-1 cells are differentiated for 3 days in the presence of phorbol ester (PMA). In particular, the cells are placed in culture in 200 μl of complete medium in the presence of 20 nM of PMA for 72 h (final cell density: 0.75×10^6 cells/ml).
# (§3) The differentiated THP-1 cells (0.75×10^6 cells/ml) are placed in culture in 200 μl of complete medium, and then incubated in the presence of the various test samples.
# (§4) Each analysis is carried out in triplicate.
# (§5) The cell supernatants are collected in order to assay the secreted cytokines after 8 h of stimulation for TNF-α, and 20 h for RANTES.
# (§6) The ELISA assays are carried out according to the indications given by the supplier.
# The following experimental conditions are selected: • final concentration of differentiated THP-1 cells: 0.75×10^6 cells/ml, […], • final glucose polymer concentration: 25 mg/ml, • response: ELISA assay of the production of RANTES after 20 h of stimulation.
# HEK-BLUE Null2 line = assay: SEAP production by HEK-BLUE Null2 control line (HEK-Null); format: cell-based
# Method: (§7) This line, which naturally expresses virtually all the innate immunity receptors, is used as a positive control in the tests.
# (§8) The RAW-BLUE and HEK-BLUE cells are cultured according to the supplier's recommendations. In particular, the selection pressure for the plasmids encoding the inflammatory molecule receptors (TLR2 or NOD2) and encoding the SEAP is provided by adding, to the culture medium, the HEK-BLUE Selection/blasticidin antibiotics. At 75% confluence, the cells are resuspended at a cell density of 0.28×10^6 cells/ml. Before stimulation, 180 μl of the cell suspension are distributed into the culture wells (96-well plate), i.e. 50 000 cells/well. The cells are then stimulated for 24 h by adding 20 μl of the test samples (in ten-times concentrated form). The stimulation lasts from 16 to 24 h.
# (§9) The production of SEAP in response to the contaminated molecules is estimated by measuring the phosphatase activity according to the protocol supplied by the manufacturer: 20 μl of culture supernatant are diluted in 180 μl of QUANTI-BLUE. The color develops at 37° C. and the reading is carried out, at various times, at 620 nm. The data are expressed as absorbance after subtraction of the background noise, obtained by adding the same volume of nonconditioned culture medium to the reaction medium of the enzyme.
# NOD2 = NOD2 (Homo sapiens, UniProt Q9HC29); assay: SEAP production by HEK-BLUE hNOD2 line (HEK-NOD2); format: cell-based
# Chain of NOD2 (Q9HC29 whole entry): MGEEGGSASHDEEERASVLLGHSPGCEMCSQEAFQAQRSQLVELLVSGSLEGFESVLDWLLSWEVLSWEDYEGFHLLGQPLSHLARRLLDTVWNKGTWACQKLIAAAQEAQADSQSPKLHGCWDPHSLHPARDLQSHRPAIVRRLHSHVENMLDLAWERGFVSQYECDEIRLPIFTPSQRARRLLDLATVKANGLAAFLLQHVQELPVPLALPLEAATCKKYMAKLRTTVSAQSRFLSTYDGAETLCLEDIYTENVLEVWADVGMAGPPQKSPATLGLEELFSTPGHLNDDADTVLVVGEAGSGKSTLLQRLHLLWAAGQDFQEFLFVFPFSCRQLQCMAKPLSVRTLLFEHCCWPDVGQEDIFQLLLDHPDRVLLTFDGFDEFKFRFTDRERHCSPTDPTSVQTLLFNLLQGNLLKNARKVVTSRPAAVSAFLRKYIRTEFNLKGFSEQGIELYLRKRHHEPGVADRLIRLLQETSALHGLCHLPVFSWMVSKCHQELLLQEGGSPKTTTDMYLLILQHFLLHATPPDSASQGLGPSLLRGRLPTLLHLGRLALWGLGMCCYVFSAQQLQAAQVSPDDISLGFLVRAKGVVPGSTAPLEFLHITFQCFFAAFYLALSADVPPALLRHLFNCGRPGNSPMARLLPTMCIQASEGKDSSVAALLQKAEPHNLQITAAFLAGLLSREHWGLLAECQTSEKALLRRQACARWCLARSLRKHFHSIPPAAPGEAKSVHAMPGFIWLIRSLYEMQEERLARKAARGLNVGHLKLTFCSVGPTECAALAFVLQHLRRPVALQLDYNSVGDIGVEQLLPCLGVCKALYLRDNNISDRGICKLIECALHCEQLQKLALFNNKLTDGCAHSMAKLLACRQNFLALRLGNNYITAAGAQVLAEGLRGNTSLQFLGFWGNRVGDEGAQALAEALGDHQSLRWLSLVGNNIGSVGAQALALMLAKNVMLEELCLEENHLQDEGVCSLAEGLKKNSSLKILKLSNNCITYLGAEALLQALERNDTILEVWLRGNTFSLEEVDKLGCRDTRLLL
# Excerpt: (§10) The HEK-BLUE cell lines (InvivoGen) are lines modified by stable transfection with vectors encoding innate immunity receptors. These cells are also cotransfected with a reporter gene which produces a secreted form of alkaline phosphatase (SEAP: secreted embryonic alkaline phosphatase), the synthesis of which is under the direct control of the signaling pathway associated with the receptor(s) expressed in the same cell line.
# as §7, §8, §9
# In the new procedure referred to as without subculturing, the HEK-NOD2 cells are conditioned in wells (10 000/well) and cultured for three days. Before stimulation, the culture medium is removed and replaced with a medium containing 1% of FCS and the solutions to be assayed. In this case, the SEAP response is 5-6 times greater than the negative control, which is compatible with a test for detecting MDP in contaminated solutions (FIG. 12).
# (§11) The following experimental conditions were selected: • final glucose polymer concentration: 37.5 mg/ml for the HEK-BLUE-cells, and 50 mg/ml for the RAW-BLUE cells, • enzymatic reaction: 50 μl of conditioned medium+150 μl of SEAP reagent, • minimum reaction time: 60 min.
# THP-1 cells [2] = format: cell-based
# Method: as §1, §2, §3, §4, §5, §6
# RAW-BLUE cells = assay: SEAP production by RAW-BLUE line; format: cell-based, mouse; details: for Detection threshold / EC50: RAW-BLUE line; for Sensitivity: per g of polymer at 50 mg/ml
# Method: as §7, §8, §9, §11
# mononuclear cells = details: background statement, cited from earlier work
# TLR2 [3] = biological target: T1, TLR2 (Homo sapiens, UniProt O60603); assay: SEAP production by HEK-BLUE hTLR2 line (HEK-TLR2); format: cell-based
# T1 sequence (O60603 21-784): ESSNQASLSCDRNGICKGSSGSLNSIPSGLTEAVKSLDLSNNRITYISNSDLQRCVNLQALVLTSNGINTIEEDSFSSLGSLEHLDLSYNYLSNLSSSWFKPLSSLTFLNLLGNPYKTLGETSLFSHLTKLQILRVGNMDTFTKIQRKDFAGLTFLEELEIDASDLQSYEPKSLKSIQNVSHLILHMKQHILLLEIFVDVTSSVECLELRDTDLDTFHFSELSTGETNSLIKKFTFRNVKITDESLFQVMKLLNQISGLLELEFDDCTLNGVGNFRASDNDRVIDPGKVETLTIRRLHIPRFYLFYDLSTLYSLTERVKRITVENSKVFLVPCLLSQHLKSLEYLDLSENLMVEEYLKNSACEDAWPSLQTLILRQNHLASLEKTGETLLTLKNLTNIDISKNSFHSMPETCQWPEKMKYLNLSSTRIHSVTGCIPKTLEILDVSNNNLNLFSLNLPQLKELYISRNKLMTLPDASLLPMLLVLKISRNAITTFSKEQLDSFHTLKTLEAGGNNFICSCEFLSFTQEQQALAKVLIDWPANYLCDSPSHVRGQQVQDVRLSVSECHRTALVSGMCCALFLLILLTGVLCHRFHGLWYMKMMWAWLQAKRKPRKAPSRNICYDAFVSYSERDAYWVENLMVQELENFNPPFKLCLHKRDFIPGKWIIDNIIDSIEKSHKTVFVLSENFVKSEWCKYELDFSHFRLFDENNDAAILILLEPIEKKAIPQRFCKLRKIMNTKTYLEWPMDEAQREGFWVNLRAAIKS
# Method: as §10, with “line. […]” for “line.”
# as §8, §9, §11
# TLR2 [4] = biological target: T1, TLR2; assay: Peptidoglycan assay method with HEK-BLUE hTLR2 cells, with or without mutanolysin treatment; format: cell-based
# Method: The assay is based on the specific recognition of PGNs by a line expressing the TLR2 receptor and on the production of an enzymatic activity that is measurable via the activation of the signaling pathway associated with TLR2.
# The dose-response curve was produced with standard S. aureus PGN (FIG. 21).
# The HEK-BLUE cells are incubated with increasing concentrations of standard, and the cell response is measured by quantifying the enzymatic activity produced.
# The result is a conventional sigmoid cell response curve: • part (A) corresponds to the responses obtained with low concentrations of PGN, below those which give effective activation of TLR2. This nonlinear zone therefore corresponds to the threshold limit of detection of the method. In such a way as to include the variability of the method, this detection threshold is estimated at three times the value of the background noise (response obtained in the absence of stimulus). • part (B) is the most interesting since a linear response is observed. This effective-response zone makes it possible to determine a direct relationship between the cell response and the level of PGN. It is therefore the assaying zone; • part (C) corresponds to a saturation of the cell response in the presence of PGN concentrations which are too high. […]
# The PGN assays are carried out on glucose polymer solutions. The sample requiring the PGN quantification is incubated with HEK-BLUE hTLR2 cells, and the cell response is measured by quantifying the enzymatic activity produced. The amount of PGN contained in the sample can be determined by referring to the dose-response curves. […]
# The samples were treated in the presence of 2500 U/ml of mutanolysin for 16 h at 37° C., and then added to the HEK-TLR2 cells. The cell response was measured by following the activity of the SEAP produced, according to the conditions described in example 3. […]
# The absorbance values were reported on the calibration curves established under the same conditions with the standard PGN (FIG. 23), so as to determine the PGN concentrations present in the glucose polymers.
# [5] = test of resumption of growth, FIG. 8, supplier's culture procedure
compound,measurement,setting,value
"CC(=O)N[C@H]1C(O)O[C@H](CO)[C@@H](O)[C@@H]1O[C@H](C)C(=O)N[C@@H](C)C(=O)N[C@H](CCC(=O)O)C(N)=O (mixture of isomers) [MDP, muramyl dipeptide]",increase of the sensitivity of the THP-1 cells to LPS and PGN (factor),THP-1 cells [1]; MDP 10 μg/ml,5
same,synergistic effect on the production of RANTES and of TNF-α in response to PGN and LPS,THP-1 cells [1]; minimum dose 1 μg/ml,does not induce a significant synergistic effect
same,synergistic effect on the production of RANTES,THP-1 cells [1],clearly show a synergistic effect
same,SEAP response of HEK-Null cells,HEK-BLUE Null2 line,insensitive
same,Detection threshold,NOD2; HEK-NOD2 line,1.5 ± 0.5 ng/mL
same,EC50,NOD2; HEK-NOD2 line,0.012 ± 0.006 mg/L
same,Sensitivity,NOD2; per g of polymer at 37.5 mg/ml,40 ± 13 ng/g
same,SEAP response relative to the negative control,"NOD2; procedure without subculturing, 10 000 cells/well, FIG. 12",5-6 times
same,SEAP response of HEK-NOD2 cells,"NOD2; selected conditions, FIG. 16",respond effectively
same,SEAP response of HEK-NOD2 cells,NOD2; [5],responds only very weakly
same,synergistic effect on the production of TNF-α,THP-1 cells [2],not very marked
Lipopolysaccharides [LPS],Detection threshold,THP-1 cells [1],10 ± 7 pg/mL
same,EC50,THP-1 cells [1],0.0009 ± 0.0001 mg/L
same,Sensitivity,THP-1 cells [1],400 ± 280 pg/g
same,synergistic effect on the production of RANTES,THP-1 cells [1],synergistic effect of the two agonists is visible
same,SEAP response of RAW-BLUE cells to inflammatory molecules,RAW-BLUE cells,weak
same,detection threshold relative to that of the sensitized THP-1 cells,RAW-BLUE cells,approximately 50 times
same,Detection threshold,RAW-BLUE cells,0.24 ± 0.06 ng/mL
same,EC50,RAW-BLUE cells,>0.01 mg/L
same,Sensitivity,RAW-BLUE cells,4.8 ± 1.2 ng/g
same,synergistic effect on the production of TNF-α,"THP-1 cells [2]; sensitizer added to PGN/LPS: MDP 10 μg/ml, LPS 25 pg/ml",synergistic effect of the two agonists is visible
same,concentration inducing a significant response,mononuclear cells,about 1 ng/ml
Tumor Necrosis Factor alpha [TNF-α],SEAP response of HEK-Null cells,HEK-BLUE Null2 line,respond
same,SEAP response of HEK-TLR2 cells to inflammatory molecules,TLR2 [3],respond
same,SEAP response of HEK-NOD2 cells,NOD2; [5],responds only very weakly
formyl-Met-Leu-Phe tripeptide [f-MLP],synergistic effect on the production of RANTES,THP-1 cells [1],no synergistic effect was observed
lipoteichoic acid [LTA],SEAP response of HEK-TLR2 cells to inflammatory molecules,TLR2 [3],weaker
peptidoglycans [PGN],EC50,THP-1 cells [1],1.2 ± 0.7 mg/L
same,Detection threshold,THP-1 cells [1]; response > 3 x SD of background noise,14500 ± 8500 pg/mL
same,Sensitivity,THP-1 cells [1],580000 ± 340000 pg/g
same,SEAP response of HEK-Null cells,HEK-BLUE Null2 line,insensitive
same,PGN levels detected by the HEK-TLR2 line,TLR2 [3],below 2 ng/g of glucose polymer
same,SEAP response of HEK-TLR2 cells to inflammatory molecules,TLR2 [3],responds effectively
same,reduction of reactivity for the HEK-TLR2 cells after passing through a 0.22 μm filter,TLR2 [3],approximately 50%
same,sensitivity threshold relative to the sensitized THP-1 cells,TLR2 [3],50 times
same,Detection threshold,TLR2 [3]; HEK-TLR2 line,0.07 ± 0.04 ng/mL
same,EC50,TLR2 [3]; HEK-TLR2 line,0.0031 ± 0.0025 mg/L
same,SEAP response of HEK-TLR2 cells to inflammatory molecules,TLR2 [3]; listed as PUN,respond very effectively
same,Sensitivity,TLR2 [3]; per g of polymer at 37.5 mg/ml,1.9 ± 1.1 ng/g
same,reduction of the response of the HEK-TLR2 cells by mutanolysin treatment,"TLR2 [4]; 2500 U/ml, 16 h, 37° C., absence of glucose polymer",more than 50%
same,response of the HEK-TLR2 cells after mutanolysin treatment,TLR2 [4]; in the presence of 7.5% of polymer,improved
same,response of the HEK-TLR2 cells after mutanolysin treatment,TLR2 [4]; in the presence of 37.5% of polymer,unchanged
same,SEAP response of RAW-BLUE cells to inflammatory molecules,RAW-BLUE cells,respond well
same,Detection threshold,RAW-BLUE cells,2.1 ± 1.5 ng/mL
same,EC50,RAW-BLUE cells,0.21 ± 0.075 mg/L
same,Sensitivity,RAW-BLUE cells,42 ± 30 ng/g
same,"concentration required for a similar response, relative to LPS",mononuclear cells; w/w ratio,at least 100 times
